Source: patent US10681909B2, “Herbicidal triazoles” (FMC Corporation, priority 2014, dated 2020)

Assays:
[1] = tested on: chamomile; assay: Test D preemergence; type: in vivo, Matricaria inodora; settings: for Plant response rating: Chamomile: scale 0 to 100
Excerpt: (§1) Seeds of plant species selected from bluegrass (annual bluegrass, Poa annua), blackgrass (Alopecurus myosuroides), canarygrass (Phalaris minor), chickweed (common chickweed, Stellaria media), galium (catchweed bedstraw, Galium aparine), bromegrass, down (downy bromegrass, Bromus tectorum), Russian thistle (Salsola kali), field poppy (Papaver rhoeas), field violet (Viola arvensis), foxtail, green (green foxtail, Setaria viridis), deadnettle (henbit deadnettle, Lamium amplexicaule), ryegrass, Ital. (Italian ryegrass, Lolium multiflorum), kochia (Kochia scoparia), lambsquarters (Chenopodium album), oilseed rape (Brassica napus), pigweed (Amaranthus retroflexus), chamomile (scentless chamomile, Matricaria inodora), speedwell (bird's-eye speedwell, Veronica persica), barley, spring (spring barley, Hordeum vulgare), wheat, spring (spring wheat, Triticum aestivum), buckwheat, wild (wild buckwheat, Polygonum convolvulus), wild mustard (Sinapis arvensis), oat, wild (wild oat, Avena fatua), radish, wild (wild radish, Raphanus raphanistrum), […]), barley, winter (winter barley, Hordeum vulgare), and wheat, winter (winter wheat, Triticum aestivum) were planted into a silt loam soil and treated preemergence with test chemicals formulated in a non-phytotoxic solvent mixture which included a surfactant. At the same time, these species were planted in pots containing Sunshine Redi-Earth® planting medium comprising spaghnum peat moss, vermiculite, starter nutrients and dolomitic limestone and treated with postemergence applications of the test chemicals formulated in the same manner. Plants ranged in height from 2 to 18 cm (1- to 4-leaf stage). Treated plants and controls were maintained in a controlled growth environment for 14 to 21 d after which time all species were compared to controls and visually evaluated. […] A dash (-) response means no test result.

[2] = tested on: velvetleaf; assay: Test C preemergence; type: in vivo, Abutilon theophrasti; settings: for Velvetleaf plant response rating (0 to 100): Preemergence, visual rating after 13 to 15 d; for Plant response rating (scale of 0 to 100 where 0 is no effect and 100 is complete control): Velvetleaf, preemergence, 250 g ai/ha
Excerpt: (§2) Seeds of plant species selected from blackgrass (Alopecurus myosuroides), ryegrass, Italian (Italian ryegrass, Lolium multiflorum), wheat (winter wheat, Triticum aestivum), galium (catchweed bedstraw, Galium aparine), corn (Zea mays), crabgrass, large (large crabgrass, Digitaria sanguinalis), foxtail, giant, (giant foxtail, Setaria faberii), johnsongrass (Sorghum halepense), lambsquarters (Chenopodium album), morningglory (Ipomoea coccinea), nutsedge, yellow (yellow nutsedge, Cyperus esculentus), pigweed (Amaranthus retroflexus), ragweed (common ragweed, Ambrosia elatior), soybean (Glycine max), barnyardgrass (Echinochloa crus-galli), oilseed rape (Brassica napus), waterhemp (common waterhemp, Amaranthus rudis), and velvetleaf (Abutilon theophrasti) were planted into a blend of loam soil and sand and treated preemergence with test chemicals formulated in a non-phytotoxic solvent mixture which included a surfactant. At the same time, plants selected from these crop and weed species and also chickweed (common chickweed, Stellaria media), oat, wild (wild oat, Avena fatua), and kochia (Kochia scoparia), were planted in pots containing Sunshine Redi-Earth® planting medium comprising spaghnum peat moss, vermiculite, starter nutrients and dolomitic limestone and treated with postemergence applications of test chemicals formulated in the same manner. Plants ranged in height from 2 to 18 cm (1- to 4-leaf stage) for postemergence treatments. […] A dash (-) response means no test result.

[3] = tested on: chickweed; assay: Test D preemergence; type: in vivo, Stellaria media; settings: for Plant response rating: Chickweed: scale 0 to 100
Excerpt: as §1

[4] = tested on: oat, wild; assay: Test D preemergence; type: in vivo, Avena fatua; settings: for Plant response rating: Oat, Wild: scale 0 to 100
Excerpt: as §1

[5] = tested on: bluegrass; assay: Test D postemergence; type: in vivo, Poa annua; settings: scale 0 to 100
Excerpt: as §1

[6] = tested on: wheat (winter wheat); assay: Test C preemergence; type: in vivo, Triticum aestivum; settings: for Wheat plant response rating (0 to 100): Preemergence, visual rating after 13 to 15 d; for Plant response rating (scale of 0 to 100 where 0 is no effect and 100 is complete control): Wheat, preemergence, 250 g ai/ha
Excerpt: as §2

[7] = tested on: canarygrass; assay: Test D postemergence; type: in vivo, Phalaris minor; settings: scale 0 to 100
Excerpt: as §1

[8] = tested on: canarygrass; assay: Test D preemergence; type: in vivo, Phalaris minor; settings: for Plant response rating: Canarygrass: scale 0 to 100
Excerpt: as §1

[9] = tested on: deadnettle; assay: Test D postemergence; type: in vivo, Lamium amplexicaule; settings: scale 0 to 100
Excerpt: as §1

[10] = tested on: speedwell; assay: Test D postemergence; type: in vivo, Veronica persica; settings: scale 0 to 100
Excerpt: as §1

[11] = tested on: corn; assay: Test C preemergence; type: in vivo, Zea mays; settings: for Plant response rating (scale of 0 to 100 where 0 is no effect and 100 is complete control): Corn, preemergence; for Corn plant response rating (0 to 100): Preemergence, visual rating after 13 to 15 d
Excerpt: as §2

[12] = tested on: deadnettle; assay: Test D preemergence; type: in vivo, Lamium amplexicaule; settings: for Plant response rating: Deadnettle: scale 0 to 100
Excerpt: as §1

[13] = tested on: johnsongrass; assay: Test C preemergence; type: in vivo, Sorghum halepense; settings: for Plant response rating (scale of 0 to 100 where 0 is no effect and 100 is complete control): Johnsongrass, preemergence; for Johnsongrass plant response rating (0 to 100): Preemergence, visual rating after 13 to 15 d
Excerpt: as §2

[14] = tested on: velvetleaf; assay: Test A preemergence; type: in vivo, Abutilon theophrasti; settings: Abutilon theophrasti, pre-emergence, 240 h, 0 to 100 scale (0 no effect, 100 complete control), read-out: Plant response rating, Velvetleaf
Procedure, shortened: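 Herbicidal response was scored on plants treated pre- or postemergence with surfactant-containing, non-phytotoxic solvent formulations. Preemergence meant a directed spray onto soil (loam–sand) holding sown seed; postemergence plants were at one to two leaves.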

[15] = 16 g ai/ha, 0 is no effect, 100 is complete control

CCOc1nc(-c2ccccc2)nn1Cc1ccnc(C(F)(F)F)c1 [Compound 27]
Plant response rating (0 to 100), Chamomile [1, 15]: 10
Plant response rating: Chamomile ([1]; 31 g ai/ha): 90
Plant response rating: Chamomile ([1]; 62 g ai/ha): 100
Plant response rating: Chamomile ([1]; 125 g ai/ha): 100
Velvetleaf plant response rating (0 to 100) ([2]; 31 g ai/ha): 10
Velvetleaf plant response rating (0 to 100) ([2]; 62 g ai/ha): 70
Plant response rating (scale of 0 to 100 where 0 is no effect and 100 is complete control) [2]: 100
Plant response rating (0 to 100), Chickweed [3, 15]: 85
Plant response rating: Chickweed ([3]; 31 g ai/ha): 95
Plant response rating: Chickweed ([3]; 62 g ai/ha): 100
Plant response rating: Chickweed ([3]; 125 g ai/ha): 100
Plant response rating (0 to 100), Oat, Wild [4, 15]: 25
Plant response rating: Oat, Wild ([4]; 62 g ai/ha): 45
Plant response rating: Oat, Wild ([4]; 125 g ai/ha): 75
Plant response rating: Bluegrass ([5]; 16 g ai/ha): 35
Plant response rating: Bluegrass ([5]; 31 g ai/ha): 60
Plant response rating: Bluegrass ([5]; 62 g ai/ha): 65
Plant response rating: Bluegrass ([5]; 125 g ai/ha): 70
Wheat plant response rating (0 to 100) ([6]; 31 g ai/ha): 20
Wheat plant response rating (0 to 100) ([6]; 62 g ai/ha): 25
Plant response rating (scale of 0 to 100 where 0 is no effect and 100 is complete control) [6]: 60
Plant response rating: Canarygrass ([7]; 16 g ai/ha): 50
Plant response rating: Canarygrass ([7]; 31 g ai/ha): 65
Plant response rating: Canarygrass ([7]; 62 g ai/ha): 70
Plant response rating: Canarygrass ([7]; 125 g ai/ha): 60
Plant response rating (0 to 100), Canarygrass [8, 15]: 35
Plant response rating: Canarygrass ([8]; 31 g ai/ha): 55
Plant response rating: Canarygrass ([8]; 62 g ai/ha): 75
Plant response rating: Canarygrass ([8]; 125 g ai/ha): 98
Plant response rating: Deadnettle ([9]; 16 g ai/ha): 55
Plant response rating: Deadnettle ([9]; 31 g ai/ha): 75
Plant response rating: Deadnettle ([9]; 62 g ai/ha): 95
Plant response rating: Deadnettle ([9]; 125 g ai/ha): 100
Plant response rating: Speedwell ([10]; 16 g ai/ha): 75
Plant response rating: Speedwell ([10]; 31 g ai/ha): 85
Plant response rating: Speedwell ([10]; 62 g ai/ha): 95
Plant response rating: Speedwell ([10]; 125 g ai/ha): 95
Plant response rating (scale of 0 to 100 where 0 is no effect and 100 is complete control) ([11]; 125 g ai/ha): 55
Plant response rating (scale of 0 to 100 where 0 is no effect and 100 is complete control) ([11]; 250 g ai/ha): 60
Corn plant response rating (0 to 100) ([11]; 31 g ai/ha): 25
Corn plant response rating (0 to 100) ([11]; 62 g ai/ha): 40
Plant response rating (0 to 100), Deadnettle [12, 15]: 80
Plant response rating: Deadnettle ([12]; 31 g ai/ha): 100
Plant response rating: Deadnettle ([12]; 62 g ai/ha): 100
Plant response rating: Deadnettle ([12]; 125 g ai/ha): 100
Plant response rating (scale of 0 to 100 where 0 is no effect and 100 is complete control) ([13]; 125 g ai/ha): 80
Plant response rating (scale of 0 to 100 where 0 is no effect and 100 is complete control) ([13]; 250 g ai/ha): 100
Johnsongrass plant response rating (0 to 100) ([13]; 31 g ai/ha): 45
Johnsongrass plant response rating (0 to 100) ([13]; 62 g ai/ha): 80

CCCc1nc(-c2ccc(F)cc2)nn1Cc1ccnc(C(F)(F)F)c1 [Compound 6, 4-[[3-(4-fluorophenyl)-5-propyl-1H-1,2,4-triazol-1-yl]methyl]-2-(trifluoromethyl)pyridine]
pest or weed control at 125 g/ha ([14]; 125 g ai/ha): 40%
pest or weed control at 500 g/ha ([14]; 500 g ai/ha, approx. 10 d): 100%
Velvetleaf plant response rating (0 to 100) ([2]; 31 g ai/ha): 20
Velvetleaf plant response rating (0 to 100) ([2]; 62 g ai/ha): 75
Plant response rating (scale of 0 to 100 where 0 is no effect and 100 is complete control) [2]: 100
Wheat plant response rating (0 to 100) ([6]; 31 g ai/ha): 0
Wheat plant response rating (0 to 100) ([6]; 62 g ai/ha): 10
Plant response rating (scale of 0 to 100 where 0 is no effect and 100 is complete control) [6]: 60
Plant response rating (scale of 0 to 100 where 0 is no effect and 100 is complete control) ([11]; 125 g ai/ha): 50
Plant response rating (scale of 0 to 100 where 0 is no effect and 100 is complete control) ([11]; 250 g ai/ha): 50
Corn plant response rating (0 to 100) ([11]; 31 g ai/ha): 15
Corn plant response rating (0 to 100) ([11]; 62 g ai/ha): 35
Plant response rating (scale of 0 to 100 where 0 is no effect and 100 is complete control) ([13]; 125 g ai/ha): 85
Plant response rating (scale of 0 to 100 where 0 is no effect and 100 is complete control) ([13]; 250 g ai/ha): 100
Johnsongrass plant response rating (0 to 100) ([13]; 31 g ai/ha): 60
Johnsongrass plant response rating (0 to 100) ([13]; 62 g ai/ha): 75
